Assay results from US4232148A, “6-Deoxyneamines” (The Upjohn Company, priority 1979, dated 1980).
Converted amounts (≈) assume the structure as drawn. Read-outs that look alike come from different tables or passages of the source.

Tested on: P. rettgeri UC 339
Assay: standard microplate test in BHI Agar, MIC
Type: cell-based
Settings: Providencia rettgeri, UC339, 20 h
Method: The compounds VII, XI, XVβ, XVα and XVI were tested in a standard microplate test in BHI (Brain Heart Infusion) Agar at a concentration of 1 mg./ml. and dilutions thereof at 37° incubation temperature. The end points are read at 20 hours. BHI Agar is supplied by Difco Laboratories, Detroit, Mich., U.S.A. and has the following compositions:
Calf brains, infusion from: 200 gm.
Beef heart, infusion from: 250 gm.
Bacto Proteose-peptone, Difco: 10 gm.
Bacto-Dextrose, Difco: 1 gm.
Disodium phosphate: 2.5 gm.

Structure (SMILES): NC[C@H]1O[C@H](O[C@H]2[C@H](O)[C@@H](O)[C@H](N)C[C@@H]2N)[C@H](N)[C@@H](O)[C@@H]1O [Neamine]
- MIC (read-out: Minimal Inhibitory Concentration): > 500 µg/mL
- MIC (read-out: Minimum Inhibitory Concentration): 250 µg/mL (≈ 776 µM)
